Columns and labels:
[1] = Impurity profile (related substances) by HPLC, initial and after one month at 40° C. (stability study); type: physicochemical; details: HPLC percent area
Method: The percentages of related substances were measured using an HPLC.
Stock promethazine HCl selectivity solution was prepared by accurately weighing about 2 mg of EP promethazine for peak identification CRS and transferring into 1 mL of diluent (prepared by mixing 750 mL of mobile phase A and 250 mL of acetonitrile), followed by vortexing to dissolve.
Ten capsules were randomly selected and weighed. The contents of the ten capsules were emptied into a 500 mL volumetric flask. 300 mL of diluent was added and the mixture was sonicated in an ice bath for 40 minutes or until completely disintegrated with intermittent swirling. The temperature was equilibrated to room temperature and more diluent was added to volume.
Promethazine HCl impurity sample solution: stock solution sample was filtered through a 0.45 μm PVDF membrane, syringe filter or a 0.45 μm PTFE w/GMF membrane, syringe filter discarding the first 5 mL and collecting approximately 20 mL into an appropriate glass container. Fill an HPLC vial with the filtrate
The RT of the promethazine in the promethazine HCl selectivity solution is between 44.1 and 53.9.
Mobile Phase B: 0.2% TFA in Acetonitrile, which was prepared by mixing well 2.0 ml of trifluoroacetic acid to 1 L of acetonitrile; and Gradient used was as follows in Table 15.
All known and unknown impurities were calculated via percent area as follow:
[formula] Where: • Ru=Peak area of related substance in the sample solution • Rt=Sum of peak area of promethazine or sumatriptan and all related substances areas corresponding to respective peak in sample solution • RRF=Relative Response Factor for related substances
The formulation was examined for its stability after one month at 40° C.

[2] = Dissolution measurement by USP Apparatus 2 (Paddle Apparatus), HPLC analysis; type: physicochemical; details: in a capsule, 500 ml 0.1 N HCl pH 1.1, N=6
Method: Dissolution studies were conducted to measure the rates of dissolution of active ingredients using a USP Apparatus 2 (Paddle Apparatus) with a dissolution fluid of 500 ml deaerated 0.1 N HCl (i.e., pH 1.1) at 37.0+/−0.5° C. Dissolution samples were analyzed by HPLC.
Dissolution medium of 0.1N HCl was prepared by mixing approximately 85 ml of concentrated (12N) Hydrochloric Acid with 10 L of water. Stock promethazine HCl standard solution was prepared by adding approximately 30 ml of dissolution medium to 25.0 mg of dried Promethazine Hydrochloride USP reference standard in a 50 ml volumetric flash, diluted to volume with dissolution media, and mixed well. […] The resulting solution is diluted to volume with dissolution medium and mixed well.
The dissolution apparatus used is USP Apparatus 2 (Paddle Apparatus) with a speed of 50 rpm at 37.0° C.±0.5° C. Dissolution medium (500 ml) was Helium sparged for at least 10 minutes. N=6 samples were tested. Sample time point of 5, 10, 15, 20, 30, 45, 60, and 90 minutes (final time point at 250 rpm). Filters: QLA 10 μm in-line full flow porous filter or equivalent; chromafil 1.0 μm on-line glass fiber membrane filter or equivalent.
The dissolution apparatus was assembled and the paddle was positioned so that the distance between its lower edge and the lower inner surface of the vessel is within 25 mm±2 mm throughout the test. This step was repeated for each of the six vessels. The speed (50 rpm) and the temperature (37.0° C.±0.5° C.) were set. 500 mL of 0.1N HCl solution were placed into each of the six vessels, previously degassed via helium purge, degassed using degasser or other suitable means. The Dissolution medium was equilibrated to set temperature and the temperature of the dissolution medium was checked with a thermometer or thermocouple before starting the dissolution. Each of the six (6) capsules were accurately weighed and the weight was recorded. The dissolution test was started. Each capsule was dropped with sinker into vessels noting the station assigned to each recorded capsule weight. The shaft was rotated at 50 rpm. Samples were withdrawn by dissolution auttosampler at 5, 10, 15, 20, 30, 45, 60, and 90 minutes into HPLC vials, or were withdraw manually. Filters (QLA 10 μm in-line full flow porous filter or equivalent; chromafil 1.0 μm on-line glass fiber membrane filter or equivalent) were utilized, discarding at least the first 5 mL of the filtrate, and clear filtrate was transfered into HPLC vials. After withdrawing samples at the 60 minute time point, the paddle rotation speed was increased to 250 rpm until the next time point of 90 minutes.
HPLC conditions: Flow rate: 1.0 ml/min; Injection Volume: 10 μL; Column Temperature: 40° C.±2° C.; Wavelengths: 240 nm; Run Time: 7 minutes; Mobile Phase A was 0.2% TFA in Water, which was prepared by mixing well 2.0 ml of trifluoroacetic acid with 1 L of water. Mobile Phase B: 0.2% TFA in Acetonitrile, which was prepared by mixing well 2.0 ml of trifluoroacetic acid to 1 L of acetonitrile; and Gradient used was as follows in Table 8.
If a Water® dissolution autosampler was utilized, then the Empower Dissolution Software was used to calculate the profile. Calculation are performed using a validated excel spreadsheet. When the sample was performed manually, the volume correction was considered for the calculation.

[3] = after 1 month store at 40° C., 5 min, 50 rpm
[4] = after 1 month store at 40° C., 10 min, 50 rpm
[5] = after 1 month store at 40° C., 15 min, 50 rpm
[6] = after 1 month store at 40° C., 20 min, 50 rpm
[7] = after 1 month store at 40° C., 30 min, 50 rpm
[8] = after 1 month store at 40° C., 45 min, 50 rpm
[9] = after 1 month store at 40° C., 60 min, 50 rpm
[10] = after 1 month store at 40° C., 90 min (250 rpm after 60 min)
[11] = large batch, 90 min (250 rpm after 60 min)

Impurity percentages, all related substances combined ([1]; in a capsule stored at 40° C. for 1 month): None Detected | Impurity percentages, all related substances combined ([1]; in a capsule, initial (before storage)): 0.1% | Dissolution (% release), Max. [2, 3]: 77 | Dissolution (% release), Mean [2, 3]: 60 | Dissolution (% release), Min. [2, 3]: 47 | Dissolution (% release), Max. [2, 4]: 89 | Dissolution (% release), Mean [2, 4]: 76 | Dissolution (% release), Min. [2, 4]: 62 | Dissolution (% release), Max. [2, 5]: 91 | Dissolution (% release), Mean [2, 5]: 81 | Dissolution (% release), Min. [2, 5]: 69 | Dissolution (% release), Max. [2, 6]: 94 | Dissolution (% release), Mean [2, 6]: 85 | Dissolution (% release), Min. [2, 6]: 74 | Dissolution (% release), Max. [2, 7]: 95 | Dissolution (% release), Mean [2, 7]: 88 | Dissolution (% release), Min. [2, 7]: 80 | Dissolution (% release), Max. [2, 8]: 97 | Dissolution (% release), Mean [2, 8]: 91 | Dissolution (% release), Min. [2, 8]: 84 | Dissolution (% release), Max. [2, 9]: 98 | Dissolution (% release), Mean [2, 9]: 93 | Dissolution (% release), Min. [2, 9]: 86 | Dissolution (% release), Max. [2, 10]: 100 | Dissolution (% release), Mean [2, 10]: 98 | Dissolution (% release), Min. [2, 10]: 96 | Dissolution (% release), Max. ([2]; large batch, 5 min, 50 rpm): 73 | Dissolution (% release), Mean ([2]; large batch, 5 min, 50 rpm): 66 | Dissolution (% release), Min. ([2]; large batch, 5 min, 50 rpm): 56 | Dissolution (% release), Max. ([2]; large batch, 10 min, 50 rpm): 86 | Dissolution (% release), Mean ([2]; large batch, 10 min, 50 rpm): 80 | Dissolution (% release), Min. ([2]; large batch, 10 min, 50 rpm): 73 | Dissolution (% release), Max. ([2]; large batch, 15 min, 50 rpm): 89 | Dissolution (% release), Mean ([2]; large batch, 15 min, 50 rpm): 85 | Dissolution (% release), Min. ([2]; large batch, 15 min, 50 rpm): 81 | Dissolution (% release), Max. ([2]; large batch, 20 min, 50 rpm): 91 | Dissolution (% release), Mean ([2]; large batch, 20 min, 50 rpm): 88 | Dissolution (% release), Min. ([2]; large batch, 20 min, 50 rpm): 84 | Dissolution (% release), Max. ([2]; large batch, 30 min, 50 rpm): 93 | Dissolution (% release), Mean ([2]; large batch, 30 min, 50 rpm): 90 | Dissolution (% release), Min. ([2]; large batch, 30 min, 50 rpm): 87 | Dissolution (% release), Max. ([2]; large batch, 45 min, 50 rpm): 95 | Dissolution (% release), Mean ([2]; large batch, 45 min, 50 rpm): 93 | Dissolution (% release), Min. ([2]; large batch, 45 min, 50 rpm): 91 | Dissolution (% release), Max. ([2]; large batch, 60 min, 50 rpm): 96 | Dissolution (% release), Mean ([2]; large batch, 60 min, 50 rpm): 94 | Dissolution (% release), Min. ([2]; large batch, 60 min, 50 rpm): 92 | Dissolution (% release), Max. [2, 11]: 98 | Dissolution (% release), Mean [2, 11]: 98 | Dissolution (% release), Min. [2, 11]: 97
SMILES: CNS(=O)(=O)Cc1ccc2[nH]cc(CCN(C)C)c2c1 [Sumatriptan, Sumatriptan succinate]
